# System: mouse sperm
# Assay: Phage combinatorial peptide library screening of intact live sperm
# Details: live CB6F1 mouse sperm, 4 rounds of binding, amplification and selection, Ph.D-7 and Ph.D-12 libraries
# Experimental: A mouse sperm suspension was isolated from cauda epididymides of fertile male CB6F1 mice. Briefly, the epididymides and vas deferens were dissected in a 35 mm dish containing 5 ml of CZB (pre-equilibrated at 37° C. and 5% CO2) and gently compressed to release sperm. Following a 10 minute incubation period, the epididimydes were removed and the sperm suspension incubated for a further 30 minute period. A 500 ul aliquot of the sperm suspension was removed from the top layer of media and placed in a 1.5 ml centrifuge tube. A 3 ul volume of phage combinatorial peptide library was added to this tube and the suspension incubated for 1 hour at 37 degrees. Following incubation, the sperm suspension was washed as follows. The suspension was centrifuged in a tabletop microcentrifuge at maximum speed for 1 minute and the majority of the supernatant removed. The remaining volume was re-suspended in 1 ml of media via pipetting and separated into two 500 ul aliquots in two 15 ml centrifuge tubes. A further 14 ml of CZB wash media was added to these tubes followed by 15 min incubation at room temperature. The tubes were centrifuged at 1000 g for 5 minutes and the supernatant removed down to an approximate 50 ul volume. […]
# Phage DNA was isolated by several different methods. […] DNA quality and quantity was determined via agarose gel electrophoresis on vertical mini-gels with novel illumination and filters. […]
substance,measurement,value
HIPRTY,binding sequence selected from combinatorial libraries,binding sequence of mouse sperm

# — patent publication US20060052283A1, “The Sperm Binding Ligand HIPRTY and Its Involvement in Embryo Cleavage” (priority 2004, published 2006)
